Legend:
22Rv1 cells [1] = assay: Chromium-51 release assay of redirected T-cell cytotoxicity against 22Rv1 cells (Example 5); type: cell-based, human; details: 22Rv1 cells resistant to enzalutamide, 10 μM enzalutamide pre-treatment
Protocol: FIG. 3 (top panel) is a graph showing the results of a chromium-51 release assay measuring the effectiveness of the anti-PSMA bispecific molecule TSC249 at inducing redirected T-cell cytotoxicity in 4 hours against enzalutamide-treated and untreated prostate cancer 22Rv1 cells. Percent specific lysis relative to a total lysis control is shown on the y-axis. Concentration (pM) of the anti-PSMA bispecific molecule TSC249 is shown on the x-axis.
To compare the sensitivity of enzalutamide-treated and untreated 22Rv1 prostate cancer cells to target-dependent T-cell cytotoxicity, a bispecific binding molecule targeting PSMA and CD3 was tested in a chromium (^51Cr) release assay using donor T-cells as effector cells. [See, e.g., US 2014/0161800 A1, which describes multispecific binding molecules that bind to prostate-specific membrane antigen (PSMA) and CD3.]
Cytotoxicity was assessed by a ^51Cr release assay. […]
Plates were incubated for 4 hours, spun at 225×g for 3 minutes, and 25 μL of supernatant was transferred from each well to the corresponding well of a 96-well LUMAPLATE® sample plate (Perkin Elmer). Sample plates were allowed to air dry in a chemical safety hood for 18 hours, and then radioactivity was read on a Topcount scintillation counter using a standard protocol. […]

LNCaP cells [2] = assay: Effect of enzalutamide on redirected T-cell cytotoxicity in LNCaP cells expressing GFP (Example 1); type: cell-based, human; details: enzalutamide alone, […] nM in 0.2% DMSO, no T-cells, 4 days
Protocol: A titration of the anti-PSMA bispecific molecule TSC249 (protein sequence of SEQ ID NO: 78 in Table 3) was added to all sets of LNCaP cells in the amounts shown on the x-axis. T-cells and DMSO were added to the first set of LNCaP cells (leftmost set of bars). […] No T-cells and DMSO were added to the third set of LNCaP cells (set of bars second from the right). […] LNCaP cell growth (number of live cells) was measured by overall fluorescence and expressed as a fraction of live cells relative to the cells untreated with TSC249 on the y-axis.
LNCaP cells expressing GFP were cultured with donor T-cells at a 3:1 ratio of T-cells to LNCaP target cells for 4 days. […] DMSO alone was added to other samples. A titration of the anti-PSMA bispecific molecule TSC249 (protein sequence of SEQ ID NO: 78 in Table 3) was added to the cell cultures. LNCaP cell growth (number of live cells) was monitored by overall fluorescence.

LNCaP cells [3] = assay: Growth inhibition of LNCaP-GFP cells with primary human T-cells, 4 days, with combination index analysis (Example 6); type: cell-based; details: enzalutamide plus TSC249 over a wide range of concentrations, T-cells, 4 days
Protocol: Additional procedures are described in Example 6. Percentage of live cells relative to an untreated control is shown on the y-axis.
Combination indices can indicate additive effects (CI=1), synergism (CI<1), or antagonism (CI>1).
Overall fluorescent signal from GFP enabled the quantitation of living LNCaP target cells in isolation from T-cells. […] TSC249 was added to have final concentrations of 125, 62.5, 31.25, 15.6, 7.8, 3.9, or 1.95 pM, or none. T-cells from several donors were used in replicate experiments, added at a ratio of 45,000 T-cells to 15,000 LNCaP cells per well.
After 4 days culture at 37° C. in 5% CO2, media was aspirated from wells and […] of 0.4% NP-40 was added to each well. Fluorescent signal from GFP in LNCaP cells adherent in wells was detected by a Spectramax plate reader, reading from the bottom of the wells. […]
The combination index theorem developed by Chou and Talalay was used to determine the interaction between the two compounds in their anti-cancer activity (see Chou, Cancer Res. 2010 Jan. 15; 70(2):440-6; Chou, Pharmacol Rev. 2006 September; 58(3):621-81). For each plate, relative fluorescence units (RFU) of all wells were normalized to the RFU of the well containing cells only, i.e., the proportion of living LNCaP cells in each well was expressed in relation to untreated LNCaP cells. […] Mean values were calculated from three replicates. […]

22Rv1 cells [4] = assay: Flow cytometry: effect of prolonged enzalutamide treatment on PSMA expression level of 22Rv1 cells (Example 4); type: cell-based, human; details: 10 μM enzalutamide
From the text: Mean fluorescence intensity (MFI) of bound molecules on live cells is shown on the y-axis. Concentration (nM) of the anti-PSMA monoclonal antibody 107-1A4 labeled with FITC is shown on the x-axis.
22Rv1 cells (PSMA+ at low level) were obtained from ATCC (Manassas, Va.) and cultured according to the ATCC protocol in RPMI-1640 media plus 10% FBS. […] All four cultures were harvested, stained for PSMA with FITC-labeled anti-PSMA monoclonal antibody 107-1A4 (Acris), and PSMA expression assayed by standard flow cytometry procedures. 22Rv1 cells were harvested with trypsin, and placed into FACS buffer (PBS+0.5% BSA [Equitech]+2 mM EDTA [Life Technologies]) at 1×10e6 per ml. FITC-107-1A4 was prepared at 36 nM in FACS buffer, and serially diluted 1:3, before adding 50 μl to 2×10e5 22Rv1 cells which had been pelleted in a 96 well plate. After 30 minute incubation on ice, cells were washed 3 times in FACS buffer, resuspended in FACS buffer, and data acquired on a BD LSRII flow cytometer. The sample files were analyzed using FlowJo software; the median fluorescence intensity (MFI) of the live population of 22Rv1 cells in each well was calculated after gating on live cells (forward vs side scatter). Median fluorescence intensities were fit to a 4-parameter logistic curve and graphed as concentration vs. MFI using GraphPad PRISM® software.

CNC(=O)c1ccc(N2C(=S)N(c3ccc(C#N)c(C(F)(F)F)c3)C(=O)C2(C)C)cc1F [enzalutamide] was tested, and the “sensitivity of target cells to T-cell mediated lysis” value (22Rv1 cells [1]) was “increasing the sensitivity”, the “reduction of live cells” value (LNCaP cells [2]) was ~20% and the “live cell signal when combined with the other drug” value (LNCaP cells [3]) was “further decrease in live cell signal”. The “MFI from binding of FITC-107-1A4 to the 22Rv1 cells (PSMA expression)” value (“MFI from binding of FITC-107-1A4” below) (22Rv1 cells [4]; one week of incubation, vs cells cultured without enzalutamide) was “increase in the MFI”, the “MFI from binding of FITC-107-1A4” value (22Rv1 cells [4]; three weeks of incubation) was “no additional increases” and the “MFI from binding of FITC-107-1A4” value (22Rv1 cells [4]; two weeks of incubation) was “additional increase in the MFI value”.
